Reference: patent US20090155186A1, “Compositions and methods for treating inflammatory conditions” (SIGNUM BIOSCENCES, INC., priority 2005, published 2009)

Tests used:
TPA-induced MPO activity [1] = details: mouse, in vivo
Procedure: These included dexamethasone, a steroid, and indomethasone, a non-steroid anti-inflammatory drug, which targets cycloxygenases. The action of AFC in this model was, therefore, compared to that of dexamethasone and indomethasone. Each of these agents were tested using the same protocols used to test AFC.

mouse ear [2] = experiment: Induction of mouse ear edema by TPA (dose response for irritant); type: in vivo; details: of the acetone-treated ear; TPA 0.25 to 1.75 μg/20 μl in acetone, topical, 5.5 hours
Procedure: A dose response range for TPA, a compound known to induce edema, was determined. TPA produces an increase in edema (ear swelling) that reaches a maximum at 6 hours.
Increasing concentrations of TPA dissolved in acetone were applied with the aid of a micropipetter onto the right ear of each of the five 6-8 week old, male Swiss Webster mice used in this analysis. Ten microliters (10 μl) were spread evenly onto the inner and outer surfaces using the pipette tip. The mice then were returned to their cages. The contralateral ear was treated only with acetone. After 5.5 hours, the mice were sacrificed and 6 mm punches were taken from each ear and weighed. Edema response was expressed as a percent increase in the treated ear's weight over the untreated ear. The dose response curve, as well as an ED50 value, was determined using the Lichtfield method (Lichtfield J T W. F., A simplified method of evaluating dose-effect experiments, Journal of Pharmacology and Experimental Therapeutics, 1948, 96: 99-113).

mouse ear [3] = experiment: AFC in acetone alone, mouse ear edema (irritancy test); type: in vivo; details: topical, dose up to about 32 mg/20 μl, 5.5 hours
Procedure: Each contralateral ear was treated with only acetone in the same manner. The mice then were returned to their cages. After 5.5 hours, mice were sacrificed and 6 mm punches were taken from each ear and weighed. Edema response was expressed as the percent increase in the treated ear's weight over the untreated (acetone, vehicle only) ear.

TPA-induced edema = experiment: TPA-induced edema, murine ear acute contact irritation model; type: in vivo, mouse; details: 2 μg TPA in 20 μl acetone; AFC in acetone 15 min later; 5.5 hours
From the text: (See Carlson, R. P., et al., Modulation of mouse ear edema by cyclooxygenase and lipoxygenase inhibitors and other pharmacologic agents. Agents Actions, 1985. 17(2): 197-204; Kuehl, F. A., Jr., et al., Role of prostaglandin endoperoxide PGG2 in inflammatory processes. Nature, 1977. 265(5590): 170-3; Trancik R J, L. N., Evaluation of topical nonsteroidal anti-inflammatory agents, in Models in Dermatology, L. Maibach, Editor. 1985, Karger. pp, 35-42; and Tramposch, K. M., Skin Inflammation, in In Vivo Models of Inflammation, M. L. Morgan D W, Editor. 1999, Birkhauser Verlag. pp. 179-204.)
The standard agents for initiating inflammation were the phorbol ester, tetradecanoylphorbol acetate, (TPA) and arachidonic acid (AA). TPA produces a greater and more prolonged neutrophil infiltration response than AA (See Rao, T. S., et al., Comparative evaluation of arachidonic acid (AA)-and tetradecanoylphorbol acetate (TPA)-induced dermal inflammation. Inflammation, 1993.17(6): 72341.) TPA-induced inflammation is the preferred agent and was used for this example.
In order to assess the effects of the inventive composition on TPA-induced edema, 2 μg of TPA in 20 μl acetone was applied with the aid of a micropipetter onto both ears of each of 6 mice. The mice were returned to their cages. […]

TPA-induced MPO activity [4] = experiment: TPA-induced neutrophil infiltration, MPO assay of mouse ears; type: in vivo
Procedure: MPO enzyme activity of the ears was assayed using the technique detailed by Griffiths and coworkers (1988). To conduct the assay, each ear was homogenized in 1.0 ml of cetyltrimethylammonium bromide buffer for 5 sec using a Pro 200 tissue blender (Pro Scientific, Inc., Oxford, Conn.) at setting 5. These samples then were centrifuged for 5 minutes at 15,000 rpm in a 5415 Eppendorf microcentrifuge. Triplicate 20 microliter aliquots of supernatant were added to 200 microliters of reaction mixture (1.25 ml IM Potassium Phosphate, 4.175 mg o-dianisidine dihydrochloride and 5 μl of 1% peroxide in a final volume of 25 ml). Absorbance at 450 nm then was measured at room temperature at three 60 second intervals using Bio-Kinetics Reader EL 312E (Bio-Tek Instruments). Activity of the homogenate, which was determined by a Bradford assay (BioRad Protein Assay, BioRad Laboratories, Inc. Hercules, Calif.), was expressed as units MPO per mg tissue +/−standard error.
Two micrograms (2 μg) of TPA in 20 μl of acetone was applied onto both ears of each mouse to induce neutrophil infiltration. After 15 minutes, varying concentrations of AFC in acetone were applied to the right ear of each mouse. After 24 hours, the mice were sacrificed. The ears were removed and the efficacy of AFC on neutrophil infiltration was assessed by an MPO assay and histological analysis.
The effectiveness of AFC treatment at various times before and after TPA application was assessed using MPO as a measure of neutrophil infiltration. […]

[5] = system: TPA-induced neutrophil infiltration; experiment: TPA-induced neutrophil infiltration, neutrophil counting assay (H&E histology); type: in vivo, mouse
Procedure: Neutrophil-infiltration Assay: Swiss Webster male mice (n=6) were treated with 1 μg/20 μl of TPA as described above in order to assess whether or not TPA induced neutrophil infiltration Acetone was used as a control. TPA was administered as described above. The mice were returned to their cages for 24 hrs to allow neutrophil infiltration, then sacrificed by cervical dislocation. The ears were removed immediately for punch biopsy, and punches were fixed for subsequent histological analysis and MPO enzymatic assay.
Neutrophil Counting Assay: Ear punches buffered in 10% formalin in PBS at ambient temperature for a minimum of 24 hrs. were sectioned and stained with Hematoxilin & Eosin (“H&E”). The number of neutrophils, identified by their multilobular nuclei, in 6 randomly 100× magnified fields distributed along the length of the ear were counted manually The results are expressed as the average number per field for each ear.
Two micrograms (2 μg) of TPA in 20 μl of acetone was applied onto both ears of each mouse to induce neutrophil infiltration. […] After 24 hours, the mice were sacrificed.

TPA-induced erythema = TPA-induced erythema in mouse ear (photograph); type: in vivo; details: 1 μg/20 μl TPA; 1 mg/20 μl AFC after 1 hour; photo 23 hours later
Procedure: For this example, both ears of a mouse were treated with a 1 μg/20 μl dose of TPA in acetone. […] The photo was taken 23 hours later using a Nikon D70 digital camera.

human skin = experiment: SDS patch irritation on human skin with pre-applied AFC; type: in vivo; details: AFC 140 mM aqueous formulation pre-applied
Procedure: An irritant was applied to the middle of the upper back of a human subject using a 0.2 ml 20% SDS solution and a Hill-Top Chamber patch with Webril pad. […] Patches 1a and 2a were removed after 2 hours, while patches 1b and 2b were removed after 2 hours and 30 minutes. High levels of irritation were visible in patch sites 2a and 2b.

chronic irritation = experiment: Chronic irritation in mice by multiple TPA applications; type: in vivo, mouse; details: AFC in acetone, contemplated result
Procedure: The effectiveness of the inventive compositions against established chronic irritation can be assayed using a modification of the technique of Stanley P L et al., Mouse skin inflammation induced by multiple topical application 12-O-tetradeconoyphorbol-13-acetate. Skin Pharmacol. 1991, 4(4):262-71. Both ears of each mouse are treated with TPA in acetone, as above, in a series of 5 applications on the mornings of days 0, 2, 4, 7, and 9. […] Punches of the ears then are taken the afternoon of the tenth day and prepared, as above, for the edema assay and the infiltration of neutrophils. Total granulocyte infiltration then is assayed by measuring MPO activity. Macrophage infiltration is determined immunocytologically using the MOMA-2 antibody. Hydrocortisone, which is known to reduce inflammatory edema granulation infiltration and microphage infiltration, can be used as a positive control.

[6] = system: delayed-type hypersensitivity; experiment: DNFB delayed-type hypersensitivity mouse ear model; type: in vivo; details: AFC 0.5 hour before or 15 min after challenge, contemplated result
From the text: The mouse ear model, described above, can be modified to assay the effect of anti-inflammatory agents in an immune based inflammation model (See Tramposch, K. M., Skin Inflammation, in In Vivo Models of Inflammation, M. L. Morgan D W, Editor. 1999, Birkhauser Verlag. pp. 179-20 and Chapman, J. P., Z. Ruben, and G. M. Butchko, Histology of and quantitative assays for oxazolone-induced allergic contact dermatitis in mice. Am J Dermatopathol, 1986. 8(2): 130-8). In this model, a sensitizing dose of dinitrofluorobenzene (DNFB) 1-3% in acetone can be applied topically according to a modification of the method by Back et al. to the shaved bellies of mice to elicit an immune response. (See Back, O. and T. Egelrud, Topical glucocorticoids and suppression of contact sensitivity. A mouse bioassay of anti-inflammatory effects. Br J Dermatol, 1985. 112(5): 539-45 and Bailey, S. C., et al., A novel contact hypersensitivity model for rank-ordering formulated corticosteroids. Inflamm Res, 1995. 44 Suppl 2: S162-3.) Mice then are challenged on day 5 with 40 μl of 0.5-1% DNFB to each ear. […] The ears are assayed for edema or neutrophil infiltration 5 hours later. Dexamethasone is used as a positive control. Five days later, the ears are challenged topically with a dose of DNFB insufficient to produce contact irritation. Simultaneously, cell infiltration studies are initiated. […]

[7] = target: membrane-associated polyisoprenoid methyl transferase (Homo sapiens, UniProt O60725); details: background statement; cited from earlier work
[8] = system: neutrophil, macrophage, and platelet responses; details: in vitro, background statement; cited from earlier work
[9] = 2 μg TPA in 20 μl acetone, AFC 15 min later, 24 hours

membrane-associated polyisoprenoid methyl transferase, sequence (O60725 whole entry): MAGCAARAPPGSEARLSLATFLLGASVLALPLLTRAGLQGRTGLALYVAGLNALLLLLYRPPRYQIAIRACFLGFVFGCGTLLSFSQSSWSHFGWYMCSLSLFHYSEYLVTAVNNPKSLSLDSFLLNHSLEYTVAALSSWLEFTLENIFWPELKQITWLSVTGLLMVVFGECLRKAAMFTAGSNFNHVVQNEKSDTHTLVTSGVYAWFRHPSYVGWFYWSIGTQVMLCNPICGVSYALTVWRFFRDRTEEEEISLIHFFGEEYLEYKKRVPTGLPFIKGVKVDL

Molecule: COc1ccc2c(c1)c(CC(=O)O)c(C)n2C(=O)c1ccc(Cl)cc1 [indomethasone]
- MPO activity in the contralateral vehicle-treated ear (systemic effect) (TPA-induced MPO activity [1]): increasing inhibition of MPO activity

Molecule: tetradecanoylphorbol acetate [TPA]
- maximum increase in ear weight (edema) (mouse ear [2]): approximately 150%

Molecule: C[C@@H]1C[C@H]2[C@@H]3CCC4=CC(=O)C=C[C@]4(C)[C@@]3(F)[C@@H](O)C[C@]2(C)[C@@]1(O)C(=O)CO [dexamethasone]
- MPO activity in the contralateral vehicle-treated ear (systemic effect) (TPA-induced MPO activity [1]): increasing inhibition of MPO activity

Molecule: CC(=O)N[C@@H](CSCC=C(C)CCC=C(C)CCC=C(C)C)C(=O)O (stereo in doubt) [AFC, N-acetyl-5-trans, trans-farnesyl-L-cysteine]
- edema response (ear punch biopsy weight) to AFC alone (mouse ear [3]): no effect
- ED50 for TPA-induced edema inhibition (TPA-induced edema): approximately 0.44 mg/20 μl
- maximum reduction in TPA-induced edema (TPA-induced edema): 80%
- effect on TPA-induced MPO activity at different application times (TPA-induced MPO activity [4]; 1 μg/20 μl TPA, 1 mg/20 μl AFC at various times before and after TPA): efficacy of AFC treatment prior to, simultaneous with, or after exposure of skin to TPA
- ED50 for inhibition of TPA-induced MPO activity (TPA-induced MPO activity [4]; [9]): 0.065 mg/20 μl
- inhibition of TPA-induced increases in MPO activity (TPA-induced MPO activity [4]; [9]): > 80%
- reduction in dermal neutrophils (counts) ([5]; 1.0 mg/20 μl AFC, TPA acute contact irritation, statistically significant, paired t-test): 80%
- neutrophils in histology of AFC treated ear ([5]; TPA pretreated ears, 24 hours, FIG. 5): substantial reduction of neutrophils
- TPA-induced erythema (TPA-induced erythema): An effect of the AFC inventive composition on TPA-induced erythema was observed
- skin irritation at patch site 1b (human skin; 20% SDS patch removed after 2 hours and 30 minutes): mild response
- skin irritation at patch site 1a (human skin; 20% SDS patch removed after 2 hours): normal skin
- chronic edema and neutrophil number (chronic irritation): reduces chronic edema and neutrophil number
- edema and neutrophil infiltration in DNFB challenge [6]: effective in reducing both edema and neutrophil infiltration
- inhibition of polyisoprenoid methyl transferase [7]: inhibit membrane-associated polyisoprenoid methyl transferase
- neutrophil, macrophage and platelet responses [8]: block some neutrophil, macrophage, and platelet responses in vitro
